4 compounds from patent US10774080B2, “Pyrimidine compound as JAK kinase inhibitor” (THERAVANCE BIOPHARMA R&D IP, LLC, priority 2017, dated 2020) can be followed below.

Usually microsomal CLint stands for the rate of metabolic loss divided by the concentration. The low end stands for slow turnover, the high end for rapid turnover.

Series [1] can be described thus: in vitro. In kind it is in vitro ADME. The settings on record: human, microsomes, pH 7.4, HLM Clint. On the procedure:
Assay 17: Human Liver Microsome Assay The objective of this assay was to assess the metabolic stability of test compounds in an in vitro human liver sub-fraction. Human liver microsomes obtained from Bioreclamation-IVT (Baltimore, Md.) were thawed on ice and diluted into 0.1M potassium phosphate buffer pH 7.4 to yield final incubation protein concentrations of 0.1 mg/mL. […] Incubations were conducted at 37° C. temperature and test aliquots were taken at time points 0, 5, 8, 15, 30 and 45 minutes. […] The resulting samples were injected onto an LC-MS/MS system for analysis. For each incubation, the peak area of the analytes in each t0 aliquot was set to 100% and the peak areas from subsequent time point aliquots were converted to percentage of parent compound remaining relative to t0. The percentage of parent compound remaining was converted to natural log scale and plotted versus time in minutes. A linear regression analysis was performed for the initial decline of the parent disappearance profile and a formula for the best-fit line determined. The slope of the resultant line was normalized to protein concentration in mg/mL protein or number of cells/mL and CLint was calculated as follows for liver microsomes: CLint (μL·min^−1·mg^−1)=(Slope×1000)/[protein,mg/mL]

Series [2] in a line: Dynamic moisture sorption (DMS). Format: physicochemical. The note with it: for total moisture uptake between 5 and 90% RH: 25° C. On the procedure:
Dynamic moisture sorption (DMS) measurement was performed using a VTI atmospheric microbalance, SGA-100 system (VTI Corp., Hialeah, Fla. 33016). A weighed sample was used and the humidity was lowest possible value (close to 0% RH) at the start of the analysis. The DMS analysis consisted of an initial drying step (0% RH) for 120 minutes, followed by two cycles of sorption and desorption with a scan rate of 5% RH/step over the humidity range of 5% RH to 90% RH. The DMS run was performed isothermally at 25° C. The total moisture uptake between 5 and 90% RH was 1.96%.
The DMS analysis consisted of an initial drying step (0% RH) for 120 minutes, followed by two cycles of sorption and desorption with a scan rate of 5% RH/step over the humidity range of 5% RH to 90% RH. The DMS run was performed isothermally at 25° C. The total moisture uptake between 5 and 90% RH was about 0.02%.

Compound `CCS(=O)(=O)N1[C@@H]2CCC[C@H]1C[C@H](N(C)c1nc(Nc3cc(C)[nH]n3)cc(C(N)=O)n1)C2` [Compound C-1, 2-(((1R,3s,5S)-9-(ethylsulfonyl)-9-azabicyclo[3.3.1]nonan-3-yl)(methyl)amino)-6-((5-methyl-1H-pyrazol-3-yl)amino)pyrimidine-4-carboxamide, reference compound] displayed a microsomal CLint at 0.1 μM in series [1] of 6 µL/min/mg.
Same read-out and setting: the figure for `Cc1cc(Nc2cc(CO)nc(N(C)[C@@H]3C[C@H]4CC[C@@H](C3)N4CCC#N)n2)n[nH]1` [Compound C-2, 3-((1R,3s,5S)-3-((4-(hydroxymethyl)-6-((5-methyl-1H-pyrazol-3-yl)amino)pyrimidin-2-yl)(methyl)amino)-8-azabicyclo[3.2.1]octan-8-yl)propanenitrile, reference compound] is 12 µL/min/mg.
With `CCS(=O)(=O)N1[C@@H]2CCC[C@H]1C[C@H](N(C)c1nc(CO)c(F)c(Nc3cc(C)[nH]n3)n1)C2` [Form II], in series [2], the “hygroscopicity (in words)” value is “non-hygroscopic”; the “total moisture uptake between 5 and 90% RH” value was “about 0.02%”.
With `CCS(=O)(=O)N1[C@@H]2CCC[C@H]1C[C@H](N(C)c1nc(CO)c(F)c(Nc3cc(C)[nH]n3)n1)C2` [Form I], the “total moisture uptake between 5 and 90% RH” value in series [2] is reported as 1.96%.
